Source: US12060351B2, “Thiadiazole IRAK4 inhibitors” (Gilead Sciences, Inc., priority 2018, dated 2024)

Columns and labels:
IRAK4 enzyme = target: T1, IRAK4 enzyme (Homo sapiens, UniProt Q9NWZ3); experiment: IRAK4 Biochemical Assay (TR-FRET, STK1 KinEASE); conditions: 500 μM ATP, Table 2 second part (compounds 33-343), read-out: IC50 IRAK4-HTBS
T1 construct: purchased Carna Biosciences, Chuo-ku, Kobe, Japan
T1 sequence (Q9NWZ3 1-460): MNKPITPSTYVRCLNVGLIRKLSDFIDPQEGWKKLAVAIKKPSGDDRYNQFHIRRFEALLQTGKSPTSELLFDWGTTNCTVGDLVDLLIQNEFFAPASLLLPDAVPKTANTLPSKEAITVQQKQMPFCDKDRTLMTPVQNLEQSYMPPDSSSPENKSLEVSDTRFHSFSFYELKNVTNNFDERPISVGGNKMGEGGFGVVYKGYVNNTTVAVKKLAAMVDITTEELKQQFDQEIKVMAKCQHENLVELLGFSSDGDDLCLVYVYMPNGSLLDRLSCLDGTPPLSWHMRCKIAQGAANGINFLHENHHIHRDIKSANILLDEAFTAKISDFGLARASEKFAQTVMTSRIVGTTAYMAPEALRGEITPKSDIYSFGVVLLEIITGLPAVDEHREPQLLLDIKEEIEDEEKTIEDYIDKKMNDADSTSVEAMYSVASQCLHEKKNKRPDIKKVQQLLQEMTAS
Procedure, shortened: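 Human IRAK4 (0.75 nM) preincubated 15 min with compound and 2 μM STK1 peptide, then reacted 120 min at room temperature with 500 μM ATP in HEPES pH 7.0 buffer with MgCl2 and DTT. EDTA stop with Cryptate anti-phosphopeptide antibody and tracer, 60 min; TR-FRET read as 665/615 nm ratio.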

TNFα = experiment: IRAK4 Monocyte TNFα Cell Based Assay (LPS-stimulated, TR-FRET TNFα detection); set-up: species or system human; conditions: Homo sapiens, Monocyte, human monocytes, LPS-stimulated; Table 2 second part (compounds 33-343); read-out: EC50 MONO TNF HTRF
Procedure, shortened: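 Monocytes (5,000 cells/well) treated with compound (0.1% DMSO) for 1 hour at 37° C, then stimulated with 50 pg/ml LPS for 4 hours. TNFα in medium quantified by TR-FRET two-antibody detection after overnight room-temperature incubation. Percent of control calculated against unstimulated (0%) and LPS-stimulated (100%) cells.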

Row | IC50 (IRAK4 enzyme) [nM] | EC50 (TNFα) [nM] | Compound
1 | 0.59 | 22.4 | CNc1cc(-c2ccc3cc(C#N)cnn23)ncc1-c1nnc([C@H]2C[C@H](NC(C)=O)C2)s1 [Example 282, N-((1r,3r)-3-(5-(6-(3-cyanopyrrolo[1,2-b]pyridazin-7-yl)-4-(methylamino)pyridin-3-yl)-1,3,4-thiadiazol-2-yl)cyclobutyl)acetamide]
2 | 0.77 | 10.9 | CC(C)Nc1cc(-c2ccc3cc(C#N)cnn23)ncc1-c1nnc([C@H]2CC[C@H](NC(=O)C(C)(C)O)CC2)s1 [Example 315, N-((1r,4r)-4-(5-(6-(3-cyanopyrrolo[1,2-b]pyridazin-7-yl)-4-(isopropylamino)pyridin-3-yl)-1,3,4-thiadiazol-2-yl)cyclohexyl)-2-hydroxy-2-methylpropanamide]
3 | 0.94 | 102 | CCOC(=O)Cc1nnc(-c2cnc(-c3ccc4cc(C#N)cnn34)cc2NC(C)C)s1 [Example 318, ethyl 2-(5-(6-(3-cyanopyrrolo[1,2-b]pyridazin-7-yl)-4-(isopropylamino)pyridin-3-yl)-1,3,4-thiadiazol-2-yl)acetate]
